Patent publication US11339171B2, “MDM2 inhibitors” (Gan & Lee Pharmaceuticals, priority 2017, dated 2022)

Legend:
MDM2 = biological target: T1, MDM2 (Homo sapiens, UniProt Q00987); test: Inhibition test of MDM2-P53 (GST-MDM2, Biotin-P53, Anti-GST-Tb, SA-XL665); format: binding
T1 construct: made in house
Outline: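 Binding was measured by TR-FRET with GST-MDM2 at 4 nM final in PBS with 0.1% BSA, 5 mM DTT and 1 mM AEBSF. Compounds were tested as twelve-point 5-fold dilutions and incubated with the detection mix for 90 min at 25 °C with shaking before plate-reader reading and curve fitting.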

[1] = tested on: human osteosarcoma cell line SJSA-1; test: Inhibition of proliferation of human osteosarcoma cell line SJSA-1 (DAPI staining, In Cell Analyzer); settings: for IC50: Homo sapiens, SJSA-1, 72 h, read-out: IC50 (nM), inhibitory activity on proliferation of human osteosarcoma cell line SJSA-1, SJSA-1, incubated 72 h
[2] = labels are Example numbers, the compounds with S-configuration are meant

T1 sequence (Q00987 whole entry): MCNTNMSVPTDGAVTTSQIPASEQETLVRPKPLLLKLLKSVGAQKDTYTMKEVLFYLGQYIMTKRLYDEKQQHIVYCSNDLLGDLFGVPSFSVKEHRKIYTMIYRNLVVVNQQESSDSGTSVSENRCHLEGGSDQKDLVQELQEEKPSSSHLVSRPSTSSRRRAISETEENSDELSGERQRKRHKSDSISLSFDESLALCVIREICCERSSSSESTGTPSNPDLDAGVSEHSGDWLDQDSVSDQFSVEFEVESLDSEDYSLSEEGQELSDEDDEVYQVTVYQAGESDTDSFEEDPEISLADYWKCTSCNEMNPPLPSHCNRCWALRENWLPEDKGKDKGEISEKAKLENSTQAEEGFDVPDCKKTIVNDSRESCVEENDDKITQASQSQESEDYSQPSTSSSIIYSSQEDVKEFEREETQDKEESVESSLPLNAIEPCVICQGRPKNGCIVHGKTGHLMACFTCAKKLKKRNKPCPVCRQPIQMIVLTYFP

## CCN(CC)c1ccc(-c2nc3c(n2C(C)C)[C@@]2(C(=O)Nc4cc(Cl)ccc42)N(c2cc(Cl)ccc2C)C3=O)c(OC)c1 [Example S-105, (S)-6-chloro-5′-(5-chloro-2-methylphenyl)-2′-(4-(diethylamino)-2-methoxyphenyl)-3′-isopropyl-3′H-spiro[dihydroindole-3,4′-pyrrolo[3,4-d]imidazole]-2,6′(5′H)-dione]
MDM2
  IC50: 11.2 nM
[1]
  IC50: 243 nM

## COc1cc(OCCF)ncc1-c1nc2c(n1C(C)C)[C@@]1(C(=O)Nc3cc(Cl)ccc31)N(c1cc(Cl)cnc1C)C2=O [Example S-173, (S)-6-chloro-5′-(5-chloro-2-methylpyridin-3-yl)-2′-(6-(2-fluoroethoxy)-4-methoxypyridin-3-yl)-3′-isopropyl-3′H-spiro[dihydroindole-3,4′-pyrrolo[3,4-d]imidazole]-2,6′(5′H)-dione]
MDM2
  IC50: 1.39 nM
[1]
  IC50: 217 nM

## COc1nc(C(C)C)ccc1-c1nc2c(n1C(C)C)[C@@]1(C(=O)Nc3cc(Cl)ccc31)N(c1cc(Cl)ccc1C)C2=O [Example S-149, (S)-6-chloro-5′-(5-chloro-2-methylphenyl)-3′-isopropyl-2′-(6-isopropyl-2-methoxypyridin-3-yl)-3′H-spiro[dihydroindole-3,4′-pyrrolo[3,4-d]imidazole]-2,6′(5′H)-dione]
MDM2
  IC50: 18.5 nM
[1]
  IC50: 153 nM

## COc1ccccc1-c1nc2c(n1C(C)C)[C@@]1(C(=O)Nc3cc(Cl)ccc31)N(c1cc(Cl)c(=O)n(C)c1)C2=O [Example S-53, (S)-6-chloro-5′-(5-chloro-1-methyl-6-oxo-1,6-dihydropyridin-3-yl)-3′-isopropyl-2′-(2-methoxyphenyl)-3′H-spiro[dihydroindole-3,4′-pyrrolo[3,4-d]imidazole]-2,6′(5′H)-dione]
MDM2
  IC50: 0.84 nM
[1]
  IC50: 213 nM

## COc1ccc(C)cc1-c1nc2c(n1C(C)C)[C@]1(C(=O)Nc3cc(Cl)ccc31)N(c1cc(Cl)ccc1C)C2=O [Example R-62, (R)-6-chloro-5′-(5-chloro-2-methylphenyl)-3′-isopropyl-2′-(2-methoxy-5-methylphenyl)-3′H-spiro[dihydroindole-3,4′-pyrrolo[3,4-d]imidazole]-2,6′(5′H)-dione]
MDM2
  IC50: 252 nM
[1]
  IC50: 4360 nM

## COc1cc(C(=O)N(C)C)ccc1-c1nc2c(n1C(C)C)[C@@]1(C(=O)Nc3cc(Cl)ccc31)N(c1cc(Cl)ccc1C)C2=O [Example S-68, (S)-4-(6-chloro-5′-(5-chloro-2-methylphenyl)-3′-isopropyl-2,6′-dioxo-5′,6′-dihydro-3′H-spiro[dihydroindole-3,4′-pyrrolo[3,4-d]imidazole]-2′-yl)-3-methoxy-N,N-dimethylbenzamide]
MDM2
  IC50: 2.32 nM
[1]
  IC50: 1700 nM

## COc1nc(C#N)ncc1-c1nc2c(n1C(C)C)C1(C(=O)Nc3cc(Cl)ccc31)N(c1cc(Cl)ccc1C)C2=O (stereo not drawn) [Example 179]
MDM2
  IC50: 4.27 nM
[1]
  IC50: 52.7 nM

## COc1ncc(-c2nc3c(n2C(C)C)[C@]2(C(=O)Nc4cc(Cl)ccc42)N(c2cc(Cl)ccc2C)C3=O)c(OC)n1 [Example R-2, (R)-6-chloro-5′-(5-chloro-2-methylphenyl)-2′-(2,4-dimethoxypyrimidin-5-yl)-3′-isopropyl-3′H-spiro[dihydroindole-3,4′-pyrrolo[3,4-d]imidazole]-2,6′(5′H)-dione]
MDM2
  IC50: 117 nM
[1]
  IC50: 2770 nM

## COc1nc(OC(C)C)ncc1-c1nc2c(n1C(C)C)[C@@]1(C(=O)Nc3cc(Cl)ccc31)N(c1cc(Cl)ccc1C)C2=O [Example S-126, (S)-6-chloro-5′-(5-chloro-2-methylphenyl)-2′-(2-isopropoxy-4-methoxypyrimidin-5-yl)-3′-isopropyl-3′H-spiro[dihydroindole-3,4′-pyrrolo[3,4-d]imidazole]-2,6′(5′H)-dione]
MDM2
  IC50: 1.52 nM
[1]
  IC50: 79.6 nM

## CCN(C)c1ncc(-c2nc3c(n2C(C)C)[C@@]2(C(=O)Nc4cc(Cl)ccc42)N(c2cc(Cl)ccc2C)C3=O)c(OC)n1 [Example S-119, (S)-6-chloro-5′-(5-chloro-2-methylphenyl)-2′-(2-(ethyl(methyl)amino)-4-methoxypyrimidin-5-yl)-3′-isopropyl-3′H-spiro[dihydroindole-3,4′-pyrrolo[3,4-d]imidazole]-2,6′(5′H)-dione]
MDM2
  IC50: 2.39 nM
[1]
  IC50: 20 nM

## COc1nc(N(C)C)ccc1-c1nc2c(n1C(C)C)[C@]1(C(=O)Nc3cc(Cl)ccc31)N(c1cc(Cl)ccc1C)C2=O [Example R-157, (R)-6-chloro-5′-(5-chloro-2-methylphenyl)-2′-(6-(dimethylamino)-2-methoxypyridin-3-yl)-3′-isopropyl-3′H-spiro[dihydroindole-3,4′-pyrrolo[3,4-d]imidazole]-2,6′(5′H)-dione]
MDM2
  IC50: 370 nM
[1]
  IC50: 1800 nM

## COc1cc(C(C)C)ncc1-c1nc2c(n1C(C)C)C1(C(=O)Nc3cc(Cl)ccc31)N(c1cc(Cl)cnc1C)C2=O (stereo not drawn) [Example 166, 6-chloro-5′-(5-chloro-2-methylpyridin-3-yl)-3′-isopropyl-2′-(6-isopropyl-4-methoxypyridin-3-yl)-3′H-spiro[dihydroindole-3,4′-pyrrolo[3,4-d]imidazole]-2,6′(5′H)-dione]
MDM2; [2]
  inhibitory effect on MDM2 compared with positive control compound HDM201: better
[1]; [2]
  inhibitory effect on human osteosarcoma cell line SJSA-1 compared with positive control compound HDM201: better
